pEC50, pIC50: −log10 of the molar value.
Assays:
[1] = tested on: differentiated P19 neurons; assay: Differentiated P19 excitotoxicity assay (glutamate/glycine-induced death, Alamar Blue); format: cell-based, murine
Method: Alamar Blue fluorescence, an indicator of cell viability, was used to determine cell viability after an NMDA-induced cytotoxic insult. […] However, since raw fluorescence counts vary from experiment to experiment, FIGS. 2A, 2B, and 2C are expressed as a percent of control.
(§1) Glutamate toxicity dose response in the presence of a constant 1 mM glycine concentration was measured in the differentiated P19 neurons. The curve generated through the data points is the average of 6 separate dose response curves. Data points are represented as the percent of control cells ±standard error. % control=(([Glutamate]exp−[Glutamate]max)/(Controlvehicle−[Glutamate]max))×100.
Data points are the average ±standard error of three separate experiments.
These cells were used to measure the effects of various known kinase inhibitors (Compound Identification (ID) column in Table I) upon cytotoxicity-induced by NMDA. First, P19 cells were differentiated as described in Example 2. Then cells were exposed to 3 mM of glutamate in the presence of 1 mM glycine.
Cell viability was determined. Compounds that prevented excitotoxicity were determined by measuring the percentage of viable cells compared to differentiated P19 cells that were not presented with a toxic insult (Table I).
Cell viability was measured using two methods. The first method was a confocal, single-cell fluorescence imaging-based method using the live cell dye carboxy-fluorescein diacetate (CFDA). CFDA labels the cell bodies and processes of living cells. […] CFDA fluorescence was measured using a modified Attofluor Imager device (Atto Instruments, Rockville Pike, Md.). Cells were labeled with 1 uM CFDA for 15 min in media, then placed onto the stage of the Attofluor microscope. The dye was excited by light from a mercury lamp source passed through a 488 nm bandpass filter of 10 nm band width, passed through a CARV real-time confocal spinning disk module (Atto Instruments, Rockville, Md.), and then passed through a 40× oil immersion objective (Zeiss Fluar, NA=1.3). Emitted light was transmitted through a 495 nm dichroic mirror, collected to an Attofluor intensified CCD camera, and images were visualized using Attofluor RatioVision software (Atto Instruments, Rockville, Md.).
The second method for measuring cell viability was a plate reader method. Cells plated into black 96 well plates (Packard viewplates) are loaded with 5% Alamar Blue dye (Biosource International). Alamar Blue is a dye that takes advantage of mitochondrial reductases to convert non-fluorescent resazurin to fluorescent resorufin (excitation 535 nm, emission 580 nm). Baseline fluorescence counts were read at room temperature in a Wallac plate reader immediately after addition of Alamar blue. Fluorescence counts of cell viability were taken the same way after 1 hour incubation at 37° C. Fluorescence was expressed as a percent of control, untreated cells after subtraction of background fluorescence. Live/dead cells were confirmed visually with a light microscope. […]

[2] = tested on: P19 neurons; settings: mouse, 1 mM
Method: as §1

[3] = tested on: differentiated P19 neurons; assay: Drug screening using differentiated P19 cell assay (neuroprotection against glutamate/glycine); format: cell-based, murine; settings: for % neuroprotection (cell survival relative to control): screened at 1 micromolar, percentage of control cells surviving after 24 hours; for pIC50: dose response 0.005-3 μM, 3 mM glutamate + 1 mM glycine, >1 = no maximum within highest dose (3 μM)
Method: Commercially available chemical libraries (BioFocus PLC, UK) were screened using the methods described herein. The stock concentration of the compounds was about 400 μM in DMSO. The concentration of compounds used in the primary screen was 1 μM. […] Columns 4-11 received compounds at the following final concentrations (μM): 3, 1.2, 0.48, 0.192, 0.077, 0.031, 0.012 and 0.005. Each row contained a different compound for confirmation. Only rows B-G received compounds, and rows A and H remained untreated. Data are expressed as % neuroprotection=((compound-glutamate average)/(U0126-glutamate average)×100).
Only the 2-pyridinamines are the subject of this invention, although limited data for 4-pyrimidinamines are presented as well. “% Inh” indicates the percentage of control cells surviving after 24 hours, and represents the neuroprotective effect of the compounds screened at 1 micromolar concentration. IC50 relate to data from dose response experiments. […] ND refers to compounds not tested in dose-response experiments. […]

## [Li] [Lithium]
[1]; Mus musculus, Neuron, 3 mM glutamate + 1 mM glycine, read-out: Maximal Efficacy for Neuroprotection
  Emax: < 10%

## N[C@@H](CCC(=O)O)C(=O)O [Glutamate]
[1]; 3 mM glutamate and 1 mM glycine for 24 hours
  reduction in Alamar blue fluorescence: 60%
[1]; constant 1 mM glycine, 24 hours, average of 6 curves, read-out: Glutamate toxicity EC50
  pEC50: 5.09

## NCC(=O)O [Glycine]
[2]
  effect on basal P19 neuron viability: did not affect P19 neuron viability

## FC(F)(F)Oc1ccc(-c2ccc(Nc3ccc(N4CCOCC4)cc3)nc2)cc1 [Cmpd 17]
[3]
  % neuroprotection (cell survival relative to control): 74%

## CCn1c2ccccc2c2cc(Nc3cccc(-c4ccc5c(c4)OCO5)n3)ccc21 [Cmpd 139]
[3]
  % neuroprotection (cell survival relative to control): 72%

## COc1cc(Nc2cccc(/C=C/c3ccccc3)n2)cc(OC)c1OC [Cmpd 144, 2-pyridinamine, 6-[(E)-2-phenylethenyl]-N-(3,4,5-trimethoxyphenyl)-]
[3]; Mus musculus, Neuron
  pIC50: 7.52
[3]
  % neuroprotection (cell survival relative to control): 110%

## CCCCCOc1ccc(Nc2ccc(-c3ccc(O)cc3)cn2)cc1 [Cmpd 9]
[3]
  pIC50: 6.25
  % neuroprotection (cell survival relative to control): 84%

## COc1ccc(-c2cccc(Nc3cc(OC)c(OC)c(OC)c3)n2)cc1OC [Cmpd 124, 2-pyridinamine, 6-(3,4-dimethoxyphenyl)-N-(3,4,5-trimethoxyphenyl)-]
[3]; Mus musculus, Neuron
  pIC50: 6.64
[3]
  % neuroprotection (cell survival relative to control): 86%

## COc1cc(Nc2cccc(-c3ccc(-c4ccccc4)cc3)n2)cc(OC)c1OC [Cmpd 121]
[3]
  pIC50: 6.19
  % neuroprotection (cell survival relative to control): 96%

## COc1ccc(Nc2ccc(-c3ccc(N4CCOCC4)cc3)cn2)cc1 [Cmpd 83]
[3]
  % neuroprotection (cell survival relative to control): 71%

## COc1ccc(Nc2cccc(-c3ccc(OC)c(OC)c3)n2)cc1 [Cmpd 130]
[3]
  pIC50: 6.07
  % neuroprotection (cell survival relative to control): 96%

## COc1ccc(Nc2cccc(-c3ccc(CNC(=O)OC(C)(C)C)cc3)n2)cc1 [Cmpd 102]
[3]; Mus musculus, Neuron
  pIC50: 6.03
[3]
  % neuroprotection (cell survival relative to control): 103%

## CCn1c2ccccc2c2cc(Nc3cccc(-c4cccc(N)c4)n3)ccc21 [Cmpd 99]
[3]
  pIC50: 6.48
  % neuroprotection (cell survival relative to control): 105%

## c1cc2c(cc1Nc1ccc(-c3ccc(N4CCOCC4)cc3)cn1)OCCO2 [Cmpd 5]
[3]
  pIC50: 6.55
  % neuroprotection (cell survival relative to control): 80%

## COc1cc(Nc2cccc(-c3cccc(OC(F)(F)F)c3)n2)cc(OC)c1OC [Cmpd 118, 2-pyridinamine, 6-[3-(trifluoromethoxy)phenyl]-N-(3,4,5-trimethoxyphenyl)-]
[3]; Mus musculus, Neuron
  pIC50: 7.30
[3]
  % neuroprotection (cell survival relative to control): 91%

## COc1cc(Nc2cccc(-c3cccc(N(C)C)c3)n2)cc(OC)c1OC [Cmpd 113]
[3]
  pIC50: 6.27
  % neuroprotection (cell survival relative to control): 91%

## FC(F)(F)Oc1cccc(-c2ccc(Nc3ccc(N4CCOCC4)cc3)nc2)c1 [Cmpd 33]
[3]
  pIC50: < 6.00
  % neuroprotection (cell survival relative to control): 89%

## COc1cc(C)c(Nc2cccc(-c3ccc(C)c(C)c3)n2)cc1OC [Cmpd 127, 2-pyridinamine, N-(4,5-dimethoxy-2-methylphenyl)-6-(3,4-dimethylphenyl)]
[3]; Mus musculus, Neuron
  pIC50: 6.72
[3]
  % neuroprotection (cell survival relative to control): 86%

## COc1ccc(Nc2ccc(-c3ccccc3OC)cn2)cc1 [Cmpd 35]
[3]
  pIC50: < 6.00
  % neuroprotection (cell survival relative to control): 82%

## COc1ccc(Nc2cccc(-c3ccc4ccccc4c3)n2)cc1 [Cmpd 97]
[3]
  % neuroprotection (cell survival relative to control): 71%

## COc1ccccc1-c1ccc(Nc2cc(OC)c(OC)c(OC)c2)nc1 [Cmpd 71]
[3]
  % neuroprotection (cell survival relative to control): 77%

## Oc1ccc(-c2ccc(Nc3ccc4c(c3)OCCO4)nc2)cc1 [Cmpd 70]
[3]
  % neuroprotection (cell survival relative to control): 93%

## CCCCCOc1ccc(Nc2ccc(-c3ccc(CCC(=O)O)cc3)cn2)cc1 [Cmpd 10, benzenepropanoic acid, 4-[6-[[4-(pentyloxy)phenyl]amino]-3-pyridinyl]-]
[3]; Mus musculus, Neuron
  pIC50: 6.64
[3]
  % neuroprotection (cell survival relative to control): 105%

## Cc1ccc(-c2ccc(Nc3cccc(N(C)C)c3)nc2)cc1C [Cmpd 87]
[3]
  pIC50: < 6.00
  % neuroprotection (cell survival relative to control): 84%

## COc1cc(Nc2cccc(-c3ccc(F)c(Cl)c3)n2)cc(OC)c1OC [Cmpd 142]
[3]
  % neuroprotection (cell survival relative to control): 94%

## CN(C)c1cccc(-c2ccc(Nc3ccc4c(c3)OCCO4)nc2)c1 [Cmpd 76]
[3]
  % neuroprotection (cell survival relative to control): 95%

## CCCCCOc1ccc(Nc2ccc(-c3cccnc3)cn2)cc1 [Cmpd 37]
[3]
  % neuroprotection (cell survival relative to control): 84%

## CC(C)(C)OC(=O)N1CCN(c2ccc(-c3ccc(Nc4ccc5c(c4)OCCO5)nc3)cc2)CC1 [Cmpd 69]
[3]
  % neuroprotection (cell survival relative to control): 99%

## COc1ccc(Nc2ccc(-c3ccc(C)c(C)c3)cn2)cc1 [Cmpd 86]
[3]
  pIC50: < 6.00
  % neuroprotection (cell survival relative to control): 80%

## Clc1cccc(-c2ccc(Nc3ccc(N4CCOCC4)cc3)nc2)c1Cl [Cmpd 26]
[3]
  pIC50: < 6.00
  % neuroprotection (cell survival relative to control): 107%

## c1ccc2sc(-c3ccc(Nc4ccc(N5CCOCC5)cc4)nc3)cc2c1 [Cmpd 22, 2-pyridinamine, 5-benzo[b]thien-2-yl-N-[4-(4-morpholinyl)phenyl]-]
[3]; Mus musculus, Neuron
  pIC50: 7.05
[3]
  % neuroprotection (cell survival relative to control): 98%

## COc1ccc(Nc2ccc(-c3cccc(OC(F)(F)F)c3)cn2)cc1 [Cmpd 18]
[3]
  % neuroprotection (cell survival relative to control): 74%

## CCCCCOc1ccc(Nc2ccc(-c3ccccc3OC)cn2)cc1 [Cmpd 14, 2-pyridinamine, 5-(2-methoxyphenyl)-N-[4-(pentyloxy)phenyl]-]
[3]; Mus musculus, Neuron
  pIC50: 6.66
[3]
  % neuroprotection (cell survival relative to control): 90%

## COc1cc(Nc2cccc(-c3cc(C(F)(F)F)cc(C(F)(F)F)c3)n2)cc(OC)c1OC [Cmpd 137]
[3]
  pIC50: 6.23
  % neuroprotection (cell survival relative to control): 82%

## CCOc1cccc(-c2ccc(Nc3ccc4c(c3)OCCO4)nc2)c1 [Cmpd 73]
[3]
  % neuroprotection (cell survival relative to control): 76%

## COc1cc(Nc2cccc(-c3ccccc3Oc3ccccc3)n2)cc(OC)c1OC [Cmpd 138, 2-pyridinamine, 6-(2-phenoxyphenyl)-N-(3,4,5-trimethoxyphenyl)-]
[3]; Mus musculus, Neuron
  pIC50: 6.64
[3]
  % neuroprotection (cell survival relative to control): 90%

## CCCCCOc1ccc(Nc2ccc(-c3cccc(N)c3)cn2)cc1 [Cmpd 36]
[3]
  pIC50: < 6.00
  % neuroprotection (cell survival relative to control): 98%

## COc1ccc(Nc2ccc(-c3ccc(N(C)C)cc3)cn2)cc1 [Cmpd 8, 2-pyridinamine, 5-[4-(dimethylamino)phenyl]-N-(4-methoxyphenyl)-]
[3]; Mus musculus, Neuron
  pIC50: 6.70
[3]
  % neuroprotection (cell survival relative to control): 83%

## COc1cc(Nc2cccc(-c3ccc4c(c3)OCO4)n2)cc(OC)c1OC [Cmpd 120, 2-pyridinamine, 6-(1,3-benzodioxol-5-yl)-N-(3,4,5-trimethoxyphenyl)-]
[3]; Mus musculus, Neuron
  pIC50: 7.30
[3]
  % neuroprotection (cell survival relative to control): 97%

## CCn1c2ccccc2c2cc(Nc3cccc(-c4cccc(N(C)C)c4)n3)ccc21 [Cmpd 104, 9H-carbazol-3-amine, N-[6-[3-(dimethylamino)phenyl]-2-pyridinyl]-9-ethyl-]
[3]; Mus musculus, Neuron
  pIC50: 7.05
[3]
  % neuroprotection (cell survival relative to control): 89%

## COc1ccc(Nc2ccc(-c3ccc(O)cc3)cn2)cc1 [Cmpd 2]
[3]
  pIC50: 6.25
  % neuroprotection (cell survival relative to control): 94%

— patent US20020198219A1, “2-pyridinamine compositions and related methods” (priority 2000, published 2002)
